In the experiment the target is T1, horseradish peroxidase (HRP-type VIA) (Armoracia rusticana, UniProt P00433).
T1 construct: purchased Sigma-Aldrich
T1 sequence (P00433 31-338 limits assumed): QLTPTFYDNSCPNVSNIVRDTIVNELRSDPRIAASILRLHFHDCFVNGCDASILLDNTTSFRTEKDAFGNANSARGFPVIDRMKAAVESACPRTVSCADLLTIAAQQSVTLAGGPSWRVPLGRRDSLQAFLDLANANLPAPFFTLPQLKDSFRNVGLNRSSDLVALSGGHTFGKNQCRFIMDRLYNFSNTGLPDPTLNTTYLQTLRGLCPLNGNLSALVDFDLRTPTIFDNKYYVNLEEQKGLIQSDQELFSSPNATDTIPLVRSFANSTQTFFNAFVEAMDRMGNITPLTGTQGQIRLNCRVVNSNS
The experiment can be described thus: Dependence of the enhanced luminol-peroxide-peroxidase chemiluminescent reaction on secondary enhancer concentration. To be noted: pH 9.00 Tris buffer; initial light output, FIG. 4. Format: biochemical. As for the experimental part:
All measurements reported in Examples were carried out with a Varian Eclipse spectrofluorimeter and the following settings: bio/chemiluminescence mode; emission wavelength: 425 nm; emission slit: 20 nm; Photomultiplier Detection Voltage: medium.
A series of chemiluminescent substrates in 0.15 M, pH 9.00+−0.05 Tris buffer, is prepared, with the following compositions:
[luminol sodium salt]=5 mM
[sodium 3-(phenothiazin-10-yl)propane-1-sulfonate]=3 mM secondary enhancer=MORP, imidazole, 1-methylimidazole, 1,2,3-triazole, 1,2,4-triazole at the following concentrations:
A series of disposable polymethylmethacrylate cuvettes is prepared, each containing 2 mL of substrate solution. To each cuvette are added 10 μL of a 2 μg/mL horseradish peroxidase solution (HRP-type VIA) solution and simultaneously a 30 seconds countdown is started. The cuvette is closed with a square piece of parafilm and vortexed for 3 seconds. The cuvette is then inserted into the spectrofluorimeter. At the end of the 30 seconds countdown measurement of the luminescent signal is initiated and recorded for a 900 sec period. In all cases the signal reaches a plateau level within 30 seconds after the addition of the peroxidase, and then begins to slowly decrease. Initial, plateau levels are plotted vs. secondary enhancer concentration, FIG. 4. As it can be seen, the effect of MORP on signal intensity is quite strong even at very low concentrations. Signal output reaches a sharp maximum at about 1.5 mM of MORP and then falls abruptly. In contrast, N-azoles exert a much more gradual effect on signal intensity, reaching a plateau at much higher concentration levels. Thus, they afford a considerable degree of regulation of the chemiluminescent light output, which cannot be obtained with dialkylaminopyridine secondary enhancers such as MORP.
With `c1c[nH]nn1` [1,2,3-triazole], the “behaviour of enhancement effect with increasing secondary enhancer concentration” value is on record as “tend to reach a plateau”. For `c1nc[nH]n1` [1,2,4-triazole] the value was “tend to reach a plateau”. For `Cn1ccnc1` [1-methylimidazole] the value was “tend to reach a plateau”; for `c1cc(N2CCOCC2)ccn1` [MORP, 4-morpholinopyridine, reference compound], “sharply decreases its enhancement effect with a further increase in concentration”; for `c1c[nH]cn1` [imidazole], “begin to slowly decrease their action at very high concentration”.

For the origin of these results see patent publication US9040252B2, “Method for increasing and regulating light emission from a chemiluminescent reaction” (Cyanagen S.R.L., priority 2010, dated 2015).
